Legend:
Jurkat leukemia cells = experiment: In vitro growth inhibition, Jurkat; type: cell-based; conditions: Homo sapiens, 50% of vehicle control cell growth
Protocol: (§1) The K562, HL-60, MDA-MB231, and melanoma (CRL-11174) human cancer cell lines were purchased from ATCC (American Tissue Type Culture Collection, Manassas, Va., United States of America). HeLa, A549, Lewis Lung Carcinoma, MDA-MB231, and melanoma cells were grown in Dulbecco's Modified Eagle Medium (DMEM) (Hyclone, Logan, Utah, United States of America) supplemented with 10% fetal bovine serum (Hyclone, Logan, Utah, United States of America) and 50 μg/mL gentamicin sulfate (Invitrogen, Carlsbad, Calif., United States of America). The HL-60, K562, and Jurkat cell lines were grown in RPMI-1640 medium (Hyclone, Logan, Utah, United States of America) supplemented with 10% fetal bovine serum and 50 μg/mL gentamicin sulfate. […]
(§2) Cells were collected 48 hours post-treatment, and cell number and viability were determined by trypan blue exclusion. […]

[1] = tested on: MDA-MB231 human breast adenocarcinoma tumors; experiment: MDA-MB231 breast adenocarcinoma xenografts in Balb/c nude mice; type: in vivo; conditions: 0.07 mg/g IP, three daily injections followed by three days off
Protocol: FIG. 7B is a graph showing the effects of 3PO treatment on the growth of established MDA-MB231 breast adenocarcinoma tumor zenografts in Balb/c athymic mice. Tumors were measured daily using blunt end Vernier calipers, and mice with established tumors (130-190 mg) were blindly randomized into either a DMSO control group (•, n=14) or a 3PO treatment group (∘, n=13). Experimental mice were weighed and given intraperitoneal (i.p.) injections of either 50 μL DMSO or 0.07 mg/g 3PO in 50 μL DMSO according to a cyclical dosing regimen of three sequential daily injections followed by three off days for the duration of the study (14 days). Arrows (↓) represent control or 3PO administrations. […]
Exponentially growing MDA-MB231 and HL-60 cells were collected in appropriate medium, washed twice and resuspended in PBS at a concentration of 20×10^7 cells/mL. […] Body weight and tumor growth were monitored daily throughout the study. Tumor masses were determined by measurement with Vernier calipers using the formula: mass (mg)=[width (mm^2)×length (mm)]/2. […]
The first tumor model tested consisted of mouse Lewis Lung Carcinoma xenografts grown in C57/Blk6 mice. For this study, mice were given IP injections of either DMSO or the calculated dose of 1 once daily for the duration of the study (14 days). […]

[2] = tested on: Jurkat cells expressing unaltered PFKFB3 levels; experiment: Growth inhibition of control Jurkat cells (empty vector, doxycycline); type: cell-based; conditions: Homo sapiens, 48 hours
Protocol: FIG. 6D is a bar graph showing the anti-proliferative effects of 3PO in Jurkat cells engineered to over-express PFKFB3 through doxycylin treatment utilizing the Tet-on system (+PFKFB3, striped bars). Twenty-four hours prior to 3PO treatment, 1 μg/mL of doxycyclin is incubated with Jurkat cells containing a PFKFB3-expressing vector in order to induce PFKFB3 protein levels. Control cells (−PFKFB3, solid bars) containing an empty vector were similarly treated with doxycyclin and served as background PFKFB3 expression. Both cell types were subsequently incubated with increasing concentrations of 3PO (1, 3, 10, or 33 μM) or vehicle (V), and viable cells were analyzed after 48 hours. The bars represent the mean±STD of triplicate values from a representative experiment.
All cell lines were plated at 1×10^5 cells/well in the appropriate medium. For suspension cells, increasing concentrations of 1 were added immediately to the medium, whereas, compound 1 treatment was initiated the following day for adherent cell lines. For dose-dependent studies, compound 1 was added in increasing concentrations for 36 hours. For time-dependent studies, 10 μM of compound 1 was added at time 0, 4, 8, 16, 24, or 36 hours. […]
as §2

[3] = tested on: LLC (Lewis Lung Carcinoma) cells; experiment: In vitro growth inhibition, LLC; type: cell-based; conditions: mouse LLC
Protocol: as §1, §2

K562 leukemia cells = experiment: In vitro growth inhibition, K562; type: cell-based, human; conditions: Homo sapiens, 50% of vehicle control cell growth
Protocol: as §1, §2

O=C(/C=C/c1cccnc1)c1ccncc1 [Compound 1, 3-(3-pyridinyl)-1-(4-pyridinyl)-2-propen-1-one]
IC50 (Jurkat leukemia cells): 1.4 µM
maximum inhibition of xenograft growth compared to DMSO controls [1]: 66%
IC50 [2]: 8.9 µM
IC50 [3]: 19 µM
IC50 (K562 leukemia cells): 3.2 µM

Source: patent US8557823B2, “Family of PFKFB3 inhibitors with anti-neoplastic activities” (Advanced Cancer Therapeutics, LLC, priority 2007, dated 2013)
